# Earlier results as cited in patent publication US20060127459A1, “Urogenital infection inhibition” (priority 2004, published 2006).
# System: pathogen adherence to epithelium cells
# Conditions: positive control, shown in U.S. patent application Ser. No. 10/401,522
substance,measurement,value
Hyaluronic acid (HLA) potassium salt,pathogen adherence to epithelium cells,inhibit pathogen adherence
